Tests used:
male CD rats [1] = assay: conditioned avoidance, shelf-jump response (S-J); assay type: in vivo; conditions: rat
Text: (§1) The antipsychotic properties of the compounds of this invention were established by standard pharmacologically accepted procedures involving two conditioned avoidance studies in which trained male CD rats (Charles River), 400-450 gm body weight are exposed to a fifteen second warning tone (conditioned stimulus) continued for an additional fifteen seconds accompanied by electric shock. The rat can avoid the electric shock by depression of a response lever (lever-response) or in a different study by jumping to an exposed shelf (shelf-jump response). In either test situation, a response during the initial warning tone is considered an avoidance response while a response during shock delivery is considered an escape response. The avoidance response is determined and expressed as a percentage of total trials from an appropriate number of trials and a 50% block in avoidance responding (AB50) is obtained from a dose-effect regression line. All the data is based upon (mg/kg) dosing of the animals. The shelf-jump response test procedure follows that of Herman et al., Comm. in Psychopharm., 3, pp. 165-171 (1979).
(§2) The following examples illustrate the production of compounds of this invention. After each example the pharmacological evaluation for the compound produced is presented. The conditioned avoidance tests are reported as relative activity for the shelf-jump (S-J) at the intraperitoneal (i.p.) dose administered in mg/kg and the AB50 is presented for the lever-response (L-R) test at the oral (p.o.) dose in mg/kg. The inhibition constant is reported for limbic D-2 binding expressed in nM concentration.

[2] = molecular target: T1, limbic D-2 dopamine receptor (Rattus norvegicus, UniProt P61169); assay: limbic D-2 binding, 3H-spiroperidol, homogenized limbic brain tissue; conditions: 95% confidence interval in brackets, read-out: Limbic D-2 inhibition constant (Ki)
T1 construct: from tissue
Experimental: Binding in the presence of the test compound is expressed as a percent of specific binding (total binding less binding in the presence of 1 μM (+)butaclamol). An inhibition constant (Ki) is calculated for each test compound to categorize its limbic D-2 binding potential. The larger the number, the less potential for dopamine receptor binding and attendant side effects from administration of the antipsychotic agent.
as §2

male CD rats [3] = assay: conditioned avoidance, lever-response (L-R); assay type: in vivo; conditions: rat; for L-R relative activity: lever-response conditioned avoidance; for ED50: po, lever-response, p.o., interval in brackets, read-out: L-R AB50 (50% block in avoidance responding)
Text: as §1, §2

[4] = antagonism of apomorphine-induced stereotyped behavior; conditions: mouse, in vivo, ip, CF-1 mice, 10 mg/kg apomorphine s.c. 30 min later; measure of extrapyramidal side effects; read-out: ED50 for inhibition of apomorphine-induced stereotyped behavior

T1 sequence (P61169 whole entry): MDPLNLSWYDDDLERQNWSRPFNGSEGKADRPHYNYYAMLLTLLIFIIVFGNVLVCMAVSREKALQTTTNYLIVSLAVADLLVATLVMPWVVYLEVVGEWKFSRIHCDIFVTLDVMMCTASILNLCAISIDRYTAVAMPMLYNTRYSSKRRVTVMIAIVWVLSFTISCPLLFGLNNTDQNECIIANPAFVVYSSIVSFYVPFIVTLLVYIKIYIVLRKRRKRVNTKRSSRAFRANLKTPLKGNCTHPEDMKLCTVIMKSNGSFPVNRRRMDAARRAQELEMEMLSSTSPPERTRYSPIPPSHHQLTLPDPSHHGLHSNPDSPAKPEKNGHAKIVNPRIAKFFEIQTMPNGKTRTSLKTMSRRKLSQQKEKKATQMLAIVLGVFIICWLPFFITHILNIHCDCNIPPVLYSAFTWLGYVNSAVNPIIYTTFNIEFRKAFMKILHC

Row | SMILES | Ki [2] | S-J relative activity (male CD rats [1]; 40 mg/kg i.p.) | other results
1 | c1ccc(C2CN(CCc3ccccn3)Cc3c2[nH]c2ccccc32)cc1 (stereo not drawn) [Example 4, 2,3,4,5-Tetrahydro-4-phenyl-2-[2-(2-pyridinyl)ethyl]-1H-pyrido[4,3-b]indole] | 600 nM | – | –
2 | Fc1ccc(-n2c3c(c4cc(F)ccc42)CN(CCc2cnccn2)CC3)cc1 [Example 8, 8-Fluoro-5-(4-fluorophenyl)-2,3,4,5-tetrahydro-2-[2-(2-pyrazinyl)ethyl]-1H-pyrido[4,3-b]indole] | – | Very Active | L-R relative activity (male CD rats [3]; 20 mg/kg p.o.): Active; ED50 (male CD rats [3]): 15.2 mg/kg
3 | Fc1ccc(-n2c3c(c4cc(F)ccc42)CN(CCc2ccc4ccccc4n2)CC3)cc1 [Example 5, 8-Fluoro-5-(4-fluorophenyl)-2,3,4,5-tetrahydro-2-[2-(2-quinolinyl)ethyl]-1H-pyrido[4,3-b]indole] | 1.07 nM | Active | L-R relative activity (male CD rats [3]; 40 mg/kg p.o.): Active; ED50 [4]: 1.62 mg/kg
4 | Fc1ccc(-n2c3c(c4cc(F)ccc42)CN(CCCCc2ccccn2)CC3)cc1 [Example 6, 8-Fluoro-5-(4-fluorophenyl)-2,3,4,5-tetrahydro-2-[4-(2-pyridinyl)butyl]-2H-pyrido[4,3-b]indole] | – | Active | –

The next lines start with results.

Row | Ki [2] | SMILES | S-J relative activity (male CD rats [1]; 40 mg/kg i.p.) | other results
5 | 12 nM | Fc1ccc(-n2c3c(c4cc(F)ccc42)CN(CCc2ccncc2)CC3)cc1 [Example 7, 8-Fluoro-5-(4-fluorophenyl)-2,3,4,5-tetrahydro-2-[2-(4-pyridinyl)ethyl]-1H-pyrido[4,3-b]indole] | Active | –
6 | 404 nM | c1ccc(C2CN(CCCCc3ccncc3)Cc3c2[nH]c2ccccc32)cc1 (stereo not drawn) [Example 2, 2,3,4,5-Tetrahydro-4-phenyl-2-[4-(4-pyridinyl)butyl]-1H-pyrido[4,3-b]indole] | – | S-J relative activity (male CD rats [1]; 20 mg/kg i.p.): Very weak
7 | 7 nM | Fc1ccc(-n2c3c(c4cc(F)ccc42)CN(CCc2ccccn2)CC3)cc1 [Example 1, 8-Fluoro-5-(4-fluorophenyl)-2,3,4,5-tetrahydro-2-[2-(2-pyridinyl)ethyl]-1H-pyrido[4,3-b]indole] | – | L-R relative activity (male CD rats [3]; 20 mg/kg p.o.): Active; ED50 (male CD rats [3]): 6.3 mg/kg; S-J relative activity (male CD rats [1]; 20 mg/kg i.p.): Active
8 | 140 nM | c1ccc(C2CN(CCCc3cccnc3)Cc3c2[nH]c2ccccc32)cc1 (stereo not drawn) [Example 3, 2,3,4,5-Tetrahydro-4-phenyl-2-[3-(3-pyridinyl)propyl]-1H-pyrido[4,3-b]indole] | – | –
